Patent US20200179310A1, “COMPOSITIONS COMPRISING SALBUTAMOL SULPHATE” (MEXICHEM AMANCO HOLDING S.A. DE C.V., priority 2013, published 2020)

Assay: Solubility of surfactants in liquid propellant (non-volatile residue of saturated supernatant)
Assay type: physicochemical
Settings: for NVR result (quantity of dissolved surfactant in the propellant): equilibrated at 20° C., excess surfactant in 200 g liquid propellant
Experimental: The solubility of various surfactants in R-134a and R-152a was investigated. The solubility was investigated by adding an excess of the surfactant (around 2 grams) to 200 g of the liquid propellant in a pressurised vessel. The vessel was equilibrated at 20° C. for a period of a few hours before decanting a weighed sample of the saturated supernatant liquid propellant through a filter into a clean vessel. The propellant was slowly removed by evaporation and the residue taken up in a small quantity of dichloromethane. The dichloromethane containing the dissolved residue was transferred to a weighed platinum crucible and heated (up to around 100° C.) to remove the solvent. The weighed, solvent-free residue represented the quantity of dissolved surfactant in the propellant.

NVR result (quantity of dissolved surfactant in the propellant) (Refrigerant 134a (R-134a)): 0.07% | Observation (Refrigerant 152a (R-152a), 20° C.): Sunk to the bottom | NVR result (quantity of dissolved surfactant in the propellant) (Refrigerant 152a (R-152a)): 0.22% | Solubility in R-152a in comparison with R134a (comparison of Table 1 values): significant increases in solubility
Substance: Span 80
